{
  "source": "paper PMC9030254",
  "about": "“Target Hopping from Protein Kinases to PXR: Identification of Small-Molecule Protein Kinase Inhibitors as Selective Modulators of Pregnane X Receptor from TüKIC Library” (Cells, 2022)",
  "experiment_in_all_cases": "Kinase profiling",
  "format_in_all_cases": "biochemical",
  "key": {"MAPKAPK5": {"molecular_target": "T1, MAPKAPK5 (Homo sapiens, UniProt Q8IW41)", "T1 construct": "purchased ProQinase (Freiburg, Germany)", "T1 sequence (Q8IW41 1-473)": "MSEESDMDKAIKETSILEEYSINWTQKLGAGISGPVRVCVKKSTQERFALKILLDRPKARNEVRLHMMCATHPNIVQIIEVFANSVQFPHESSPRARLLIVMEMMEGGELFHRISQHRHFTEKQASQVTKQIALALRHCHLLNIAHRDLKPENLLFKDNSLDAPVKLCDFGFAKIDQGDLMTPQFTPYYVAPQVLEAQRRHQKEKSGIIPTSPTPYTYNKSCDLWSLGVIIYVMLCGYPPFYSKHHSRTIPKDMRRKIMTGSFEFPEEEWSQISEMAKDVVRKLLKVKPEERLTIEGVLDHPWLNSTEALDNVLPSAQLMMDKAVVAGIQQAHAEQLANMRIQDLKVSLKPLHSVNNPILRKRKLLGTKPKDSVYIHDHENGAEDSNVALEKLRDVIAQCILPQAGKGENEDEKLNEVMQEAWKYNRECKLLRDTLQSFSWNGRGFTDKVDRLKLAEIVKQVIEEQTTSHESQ", "method": "(§1) The analysis was performed by ProQinase (Freiburg, Germany)."}, "PYK2": {"molecular_target": "T2, PYK2 (Homo sapiens, UniProt Q14289)", "T2 construct": "purchased ProQinase (Freiburg, Germany)", "T2 sequence (Q14289 whole entry)": "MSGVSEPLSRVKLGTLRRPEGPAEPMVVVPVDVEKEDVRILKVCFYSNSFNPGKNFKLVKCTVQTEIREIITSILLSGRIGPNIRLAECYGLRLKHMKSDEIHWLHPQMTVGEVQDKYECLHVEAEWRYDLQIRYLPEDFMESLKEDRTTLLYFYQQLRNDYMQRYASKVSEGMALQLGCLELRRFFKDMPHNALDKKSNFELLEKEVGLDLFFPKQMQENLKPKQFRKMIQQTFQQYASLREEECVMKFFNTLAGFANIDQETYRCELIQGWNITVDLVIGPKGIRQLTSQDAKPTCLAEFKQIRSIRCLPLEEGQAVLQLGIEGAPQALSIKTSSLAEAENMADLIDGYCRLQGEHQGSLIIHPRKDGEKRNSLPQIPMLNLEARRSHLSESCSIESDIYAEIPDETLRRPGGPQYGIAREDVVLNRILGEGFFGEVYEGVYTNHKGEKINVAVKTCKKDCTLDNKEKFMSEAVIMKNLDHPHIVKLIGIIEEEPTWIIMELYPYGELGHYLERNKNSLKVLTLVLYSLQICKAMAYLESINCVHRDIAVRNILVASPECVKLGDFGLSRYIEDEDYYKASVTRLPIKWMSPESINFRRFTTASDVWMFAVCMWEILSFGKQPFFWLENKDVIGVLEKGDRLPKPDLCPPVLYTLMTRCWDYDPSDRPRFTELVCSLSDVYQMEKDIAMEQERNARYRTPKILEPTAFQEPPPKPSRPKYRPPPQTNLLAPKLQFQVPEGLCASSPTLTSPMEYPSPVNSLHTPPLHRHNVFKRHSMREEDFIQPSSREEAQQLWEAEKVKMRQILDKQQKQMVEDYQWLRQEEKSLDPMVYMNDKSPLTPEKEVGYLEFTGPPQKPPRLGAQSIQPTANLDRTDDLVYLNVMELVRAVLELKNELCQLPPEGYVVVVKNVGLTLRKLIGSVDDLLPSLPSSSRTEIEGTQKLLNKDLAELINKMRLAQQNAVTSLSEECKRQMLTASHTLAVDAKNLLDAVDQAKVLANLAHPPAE", "method": "as §1"}, "ZAP70": {"molecular_target": "T3, ZAP70 (Homo sapiens, UniProt P43403)", "T3 construct": "purchased ProQinase (Freiburg, Germany)", "T3 sequence (P43403 1-619)": "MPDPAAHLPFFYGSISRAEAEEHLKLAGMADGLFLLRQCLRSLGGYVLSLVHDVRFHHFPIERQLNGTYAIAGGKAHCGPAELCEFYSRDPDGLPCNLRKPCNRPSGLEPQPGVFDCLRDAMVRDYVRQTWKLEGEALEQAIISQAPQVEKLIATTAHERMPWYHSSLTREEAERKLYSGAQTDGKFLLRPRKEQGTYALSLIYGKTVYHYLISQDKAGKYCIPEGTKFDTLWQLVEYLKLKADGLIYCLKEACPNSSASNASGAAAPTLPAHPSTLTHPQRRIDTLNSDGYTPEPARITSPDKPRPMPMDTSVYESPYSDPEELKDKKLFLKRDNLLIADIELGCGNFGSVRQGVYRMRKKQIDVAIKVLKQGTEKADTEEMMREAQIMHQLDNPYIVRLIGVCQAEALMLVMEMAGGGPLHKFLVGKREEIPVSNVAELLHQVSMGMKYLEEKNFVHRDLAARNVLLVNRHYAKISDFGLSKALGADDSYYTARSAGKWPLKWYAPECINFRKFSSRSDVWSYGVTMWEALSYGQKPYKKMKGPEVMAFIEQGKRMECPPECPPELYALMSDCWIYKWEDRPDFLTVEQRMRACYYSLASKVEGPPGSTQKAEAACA", "method": "as §1"}, "FGFR2": {"molecular_target": "T4, FGFR2 (Homo sapiens, UniProt P21802)", "T4 construct": "purchased ProQinase (Freiburg, Germany)", "T4 sequence (P21802 22-821)": "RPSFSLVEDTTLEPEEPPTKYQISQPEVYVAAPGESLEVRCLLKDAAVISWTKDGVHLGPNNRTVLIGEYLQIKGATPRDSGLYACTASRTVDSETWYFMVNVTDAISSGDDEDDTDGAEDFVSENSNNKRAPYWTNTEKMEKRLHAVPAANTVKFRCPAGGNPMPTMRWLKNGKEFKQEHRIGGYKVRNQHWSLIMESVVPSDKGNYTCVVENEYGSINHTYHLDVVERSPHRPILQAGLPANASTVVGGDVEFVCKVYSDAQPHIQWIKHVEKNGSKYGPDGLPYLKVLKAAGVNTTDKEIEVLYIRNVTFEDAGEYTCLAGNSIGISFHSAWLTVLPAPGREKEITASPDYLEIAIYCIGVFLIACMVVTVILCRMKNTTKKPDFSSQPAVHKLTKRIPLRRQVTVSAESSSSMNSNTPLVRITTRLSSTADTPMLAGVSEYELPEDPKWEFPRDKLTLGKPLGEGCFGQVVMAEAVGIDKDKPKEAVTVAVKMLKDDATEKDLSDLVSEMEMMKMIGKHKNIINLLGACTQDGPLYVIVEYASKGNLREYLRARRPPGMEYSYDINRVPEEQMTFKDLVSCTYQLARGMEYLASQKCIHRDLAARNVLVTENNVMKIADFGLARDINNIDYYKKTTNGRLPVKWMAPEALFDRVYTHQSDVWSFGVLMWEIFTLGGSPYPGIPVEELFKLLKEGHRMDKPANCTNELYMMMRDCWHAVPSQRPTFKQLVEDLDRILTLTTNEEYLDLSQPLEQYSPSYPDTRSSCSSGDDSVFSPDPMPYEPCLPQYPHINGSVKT", "method": "as §1"}, "DYRK2": {"molecular_target": "T5, DYRK2 (Homo sapiens, UniProt Q92630)", "T5 construct": "purchased ProQinase (Freiburg, Germany)", "T5 sequence (Q92630 1-601)": "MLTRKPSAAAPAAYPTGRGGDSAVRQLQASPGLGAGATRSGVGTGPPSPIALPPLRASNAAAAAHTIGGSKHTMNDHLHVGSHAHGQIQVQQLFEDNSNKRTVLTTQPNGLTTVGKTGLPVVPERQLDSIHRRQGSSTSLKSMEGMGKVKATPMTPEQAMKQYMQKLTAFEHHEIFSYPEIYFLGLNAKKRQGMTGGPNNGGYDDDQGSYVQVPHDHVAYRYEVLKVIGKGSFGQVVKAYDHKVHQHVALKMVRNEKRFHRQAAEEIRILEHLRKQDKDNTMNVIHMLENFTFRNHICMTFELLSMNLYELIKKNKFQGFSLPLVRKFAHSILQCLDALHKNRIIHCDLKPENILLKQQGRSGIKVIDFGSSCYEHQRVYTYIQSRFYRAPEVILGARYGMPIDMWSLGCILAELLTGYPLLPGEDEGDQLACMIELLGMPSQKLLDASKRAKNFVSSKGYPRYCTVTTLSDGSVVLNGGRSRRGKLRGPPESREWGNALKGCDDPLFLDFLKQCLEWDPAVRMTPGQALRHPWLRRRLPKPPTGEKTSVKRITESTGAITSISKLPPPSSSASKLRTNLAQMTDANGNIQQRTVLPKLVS", "method": "as §1"}, "PKMYT1": {"molecular_target": "T6, PKMYT1 (Homo sapiens, UniProt Q99640)", "T6 construct": "purchased ProQinase (Freiburg, Germany)", "T6 sequence (Q99640 1-499)": "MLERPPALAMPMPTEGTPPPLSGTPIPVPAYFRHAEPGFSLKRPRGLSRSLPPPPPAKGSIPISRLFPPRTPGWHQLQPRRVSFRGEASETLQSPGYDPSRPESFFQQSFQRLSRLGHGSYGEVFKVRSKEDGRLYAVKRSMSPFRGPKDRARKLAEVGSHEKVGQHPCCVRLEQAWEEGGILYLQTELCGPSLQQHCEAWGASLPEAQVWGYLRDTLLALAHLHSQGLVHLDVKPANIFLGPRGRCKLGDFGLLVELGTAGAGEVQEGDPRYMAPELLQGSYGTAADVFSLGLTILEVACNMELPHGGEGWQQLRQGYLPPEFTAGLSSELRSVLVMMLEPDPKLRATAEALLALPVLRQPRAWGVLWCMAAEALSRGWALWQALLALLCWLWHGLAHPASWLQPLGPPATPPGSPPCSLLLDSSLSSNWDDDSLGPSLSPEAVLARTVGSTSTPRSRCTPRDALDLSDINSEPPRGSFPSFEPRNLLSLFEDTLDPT", "method": "as §1"}, "CK2alpha1": {"molecular_target": "T7, CK2alpha1 (Homo sapiens, UniProt P68400)", "T7 construct": "purchased ProQinase (Freiburg, Germany)", "T7 sequence (P68400 whole entry)": "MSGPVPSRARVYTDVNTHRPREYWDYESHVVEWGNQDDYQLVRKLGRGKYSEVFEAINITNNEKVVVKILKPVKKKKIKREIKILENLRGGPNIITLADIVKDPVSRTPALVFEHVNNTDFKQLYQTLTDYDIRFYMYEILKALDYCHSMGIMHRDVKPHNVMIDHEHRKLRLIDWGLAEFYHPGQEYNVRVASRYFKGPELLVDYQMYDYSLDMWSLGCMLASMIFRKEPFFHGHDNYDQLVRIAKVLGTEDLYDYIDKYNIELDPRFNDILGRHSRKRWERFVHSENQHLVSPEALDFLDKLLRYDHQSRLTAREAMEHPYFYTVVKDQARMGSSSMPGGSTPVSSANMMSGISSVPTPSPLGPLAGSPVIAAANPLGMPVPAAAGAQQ", "method": "as §1"}, "AKT1": {"molecular_target": "T8, AKT1 (Homo sapiens, UniProt P31749)", "T8 construct": "purchased ProQinase (Freiburg, Germany)", "T8 sequence (P31749 whole entry)": "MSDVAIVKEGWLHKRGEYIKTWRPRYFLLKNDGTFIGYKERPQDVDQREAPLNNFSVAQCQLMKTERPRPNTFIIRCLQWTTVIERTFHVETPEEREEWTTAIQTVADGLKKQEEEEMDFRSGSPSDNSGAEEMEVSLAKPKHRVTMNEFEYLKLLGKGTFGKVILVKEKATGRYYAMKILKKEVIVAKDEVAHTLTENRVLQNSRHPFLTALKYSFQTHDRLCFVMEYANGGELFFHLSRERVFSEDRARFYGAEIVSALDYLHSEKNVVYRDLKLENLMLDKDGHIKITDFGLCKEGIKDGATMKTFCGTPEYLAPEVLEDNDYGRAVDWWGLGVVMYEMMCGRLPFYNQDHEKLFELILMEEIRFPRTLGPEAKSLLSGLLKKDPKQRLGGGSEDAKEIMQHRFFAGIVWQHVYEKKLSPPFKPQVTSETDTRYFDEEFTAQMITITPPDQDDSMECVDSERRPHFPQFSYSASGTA", "method": "as §1"}},
  "data": [
    {"smiles": "O=C(Nc1ccc(F)c(Nc2ccc3c(c2)CCCCC3=O)c1)c1cccc(F)c1", "note": "[Compound 109]", "values": [
      {"measurement": "Residual activity", "setting": "MAPKAPK5; 1.0E-05 M", "value": "97 % of control"},
      {"measurement": "Residual activity", "setting": "MAPKAPK5; 1.0E-06 M", "value": "101 % of control"},
      {"measurement": "Residual activity", "setting": "PYK2; 1.0E-05 M", "value": "80 % of control"},
      {"measurement": "Residual activity", "setting": "PYK2; 1.0E-06 M", "value": "87 % of control"},
      {"measurement": "Residual activity", "setting": "ZAP70; 1.0E-05 M", "value": "91 % of control"},
      {"measurement": "Residual activity", "setting": "ZAP70; 1.0E-06 M", "value": "114 % of control"},
      {"measurement": "Residual activity", "setting": "FGFR2; 1.0E-05 M", "value": "74 % of control"},
      {"measurement": "Residual activity", "setting": "FGFR2; 1.0E-06 M", "value": "97 % of control"},
      {"measurement": "Residual activity", "setting": "DYRK2; 1.0E-05 M", "value": "92 % of control"},
      {"measurement": "Residual activity", "setting": "DYRK2; 1.0E-06 M", "value": "98 % of control"},
      {"measurement": "Residual activity", "setting": "PKMYT1; 1.0E-05 M", "value": "95 % of control"},
      {"measurement": "Residual activity", "setting": "PKMYT1; 1.0E-06 M", "value": "98 % of control"},
      {"measurement": "Residual activity", "setting": "CK2alpha1; 1.0E-05 M", "value": "98 % of control"},
      {"measurement": "Residual activity", "setting": "CK2alpha1; 1.0E-06 M", "value": "102 % of control"},
      {"measurement": "Residual activity", "setting": "AKT1; 1.0E-05 M", "value": "97 % of control"},
      {"measurement": "Residual activity", "setting": "AKT1; 1.0E-06 M", "value": "101 % of control"}
    ]},
    {"smiles": "O=C(Cc1ccccc1)Nc1ccc(F)c(Nc2ccc3c(c2)CCCCC3=O)c1", "note": "[Compound 100]", "values": [
      {"measurement": "Residual activity", "setting": "MAPKAPK5; 1.0E-05 M", "value": "89 % of control"},
      {"measurement": "Residual activity", "setting": "MAPKAPK5; 1.0E-06 M", "value": "127 % of control"},
      {"measurement": "Residual activity", "setting": "PYK2; 1.0E-05 M", "value": "79 % of control"},
      {"measurement": "Residual activity", "setting": "PYK2; 1.0E-06 M", "value": "108 % of control"},
      {"measurement": "Residual activity", "setting": "ZAP70; 1.0E-05 M", "value": "103 % of control"},
      {"measurement": "Residual activity", "setting": "ZAP70; 1.0E-06 M", "value": "118 % of control"},
      {"measurement": "Residual activity", "setting": "FGFR2; 1.0E-05 M", "value": "51 % of control"},
      {"measurement": "Residual activity", "setting": "FGFR2; 1.0E-06 M", "value": "90 % of control"},
      {"measurement": "Residual activity", "setting": "DYRK2; 1.0E-05 M", "value": "91 % of control"},
      {"measurement": "Residual activity", "setting": "DYRK2; 1.0E-06 M", "value": "89 % of control"},
      {"measurement": "Residual activity", "setting": "PKMYT1; 1.0E-05 M", "value": "93 % of control"},
      {"measurement": "Residual activity", "setting": "PKMYT1; 1.0E-06 M", "value": "102 % of control"},
      {"measurement": "Residual activity", "setting": "CK2alpha1; 1.0E-05 M", "value": "106 % of control"},
      {"measurement": "Residual activity", "setting": "CK2alpha1; 1.0E-06 M", "value": "102 % of control"},
      {"measurement": "Residual activity", "setting": "AKT1; 1.0E-05 M", "value": "88 % of control"},
      {"measurement": "Residual activity", "setting": "AKT1; 1.0E-06 M", "value": "99 % of control"}
    ]}
  ]
}
